Results taken from ChEMBL document CHEMBL2150897, “Discovery of DS-8108b, a Novel Orally Bioavailable Renin Inhibitor” (ACS Med Chem Lett, 2012).
Where a chain is given by its changes, count along the chain named.

Legend:
[1] = Oral bioavailability in cynomolgus monkey at 3 mg/kg; assay type: ADME, organism-based, Macaca fascicularis; settings: in vivo
[2] = Cmax in cynomolgus monkey at 10 mg/kg, po; assay type: ADME, organism-based, Macaca fascicularis; set-up: dose 10 mg/kg, route oral; settings: in vivo
[3] = target: Voltage-gated inwardly rectifying potassium channel KCNH2 (Homo sapiens, UniProt Q12809); test: Inhibition of human ERG at 100 uM
[4] = target: Cathepsin D (Homo sapiens, UniProt P07339); test: Inhibition of human cathepsin D
[5] = test system: Cynomolgus monkey; test: Ex vivo inhibition of plasma renin activity in cynomolgus monkey at 3 mg/kg, po administered after furosemide treatment measured after 24 hrs; assay type: functional; settings: Macaca fascicularis
[6] = test system: Cynomolgus monkey; test: Antihypertensive activity in po dosed cynomolgus monkey assessed as reduction in mean arterial pressure administered as single dose 3 days prior to furosemide treatment measured up to 12 hrs; assay type: functional, organism-based; settings: Macaca fascicularis; Artery
[7] = AUC ( 0 to t) in cynomolgus monkey at 10 mg/kg, po; assay type: ADME, organism-based, Macaca fascicularis; set-up: dose 10 mg/kg, route oral; settings: plasma
[8] = test system: Cynomolgus monkey; test: Ex vivo inhibition of plasma renin activity in cynomolgus monkey at 3 to 10mg/kg, po administered after furosemide treatment measured after 24 hrs relative to aliskiren hemifumarate; assay type: functional, Macaca fascicularis
[9] = Inhibition of HIV protease; set-up: species or system Human immunodeficiency virus
[10] = target: Sodium channel protein type 5 subunit alpha (Homo sapiens, UniProt Q14524); test: Inhibition of human Nav 1.5 at 100 uM
[11] = Inhibition of human pepsin
[12] = AUC ( 0 to t) in cynomolgus monkey at 3 mg/kg, po; assay type: ADME, organism-based, Macaca fascicularis; set-up: dose 3 mg/kg, route oral; settings: plasma
[13] = Half life in cynomolgus monkey at 3 mg/kg, iv; assay type: ADME, organism-based, Macaca fascicularis; set-up: dose 3 mg/kg, route intravenous; settings: in vivo
[14] = test system: Cynomolgus monkey; test: Cardiotoxicity in telemetered cynomolgus monkey assessed as change in QTc interval at 1000 mg/kg, po administered as single dose measured up to 24 hrs; assay type: toxicity, organism-based, Macaca fascicularis; set-up: dose 1000 mg/kg, route oral; settings: in vivo
[15] = Cmax in cynomolgus monkey at 3 mg/kg, po; assay type: ADME, organism-based, Macaca fascicularis; set-up: dose 3 mg/kg, route oral; settings: in vivo
[16] = target: T1, Renin (Homo sapiens, UniProt P00797); test: Inhibition of human plasma renin activity after 60 mins by competitive RIA
T1 sequence (P00797 whole entry): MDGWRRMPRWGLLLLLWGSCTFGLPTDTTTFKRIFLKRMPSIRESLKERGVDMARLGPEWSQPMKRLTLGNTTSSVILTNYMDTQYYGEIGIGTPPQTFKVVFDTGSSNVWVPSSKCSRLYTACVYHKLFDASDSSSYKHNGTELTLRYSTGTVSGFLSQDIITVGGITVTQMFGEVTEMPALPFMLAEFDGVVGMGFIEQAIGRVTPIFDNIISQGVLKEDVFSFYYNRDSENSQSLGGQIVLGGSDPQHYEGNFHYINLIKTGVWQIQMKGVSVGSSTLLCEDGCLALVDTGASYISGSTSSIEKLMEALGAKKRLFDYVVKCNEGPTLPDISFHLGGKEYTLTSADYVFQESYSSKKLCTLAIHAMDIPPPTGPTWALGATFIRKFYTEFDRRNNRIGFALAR

[17] = Tmax in cynomolgus monkey at 10 mg/kg, po; assay type: ADME, organism-based, Macaca fascicularis; set-up: dose 10 mg/kg, route oral; settings: in vivo
[18] = test system: Cynomolgus monkey; test: Ex vivo inhibition of plasma renin activity in po dosed cynomolgus monkey administered after furosemide treatment measured up to 24 hrs; assay type: functional, organism-based; settings: Macaca fascicularis
[19] = Tmax in cynomolgus monkey at 3 mg/kg, po; assay type: ADME, organism-based, Macaca fascicularis; set-up: dose 3 mg/kg, route oral; settings: in vivo
[20] = Half life in cynomolgus monkey at 3 mg/kg, po; assay type: ADME, organism-based, Macaca fascicularis; set-up: dose 3 mg/kg, route oral; settings: in vivo
[21] = target: T1, Renin; test: Inhibition of human recombinant renin compound treated for 10 mins before substrate addition measured after 90 mins by fluorescence method
[22] = target: T2, Renin (Macaca fascicularis, UniProt Q6DLS0); test: Inhibition of cynomolgus monkey plasma renin activity after 60 mins by competitive RIA
T2 sequence (Q6DLS0 whole entry): T1 sequence (P00797 whole entry) with T68A, I214L, S235A

[23] = test system: Salmonella typhimurium; test: Mutagenic activity in Salmonella typhimurium in presence of S9 mixture; assay type: toxicity, organism-based; settings: salmonella enterica subsp. enterica serovar typhimurium
[24] = test system: Cynomolgus monkey; test: Ex vivo inhibition of plasma renin activity in cynomolgus monkey at 10 mg/kg, po administered after furosemide treatment measured after 24 hrs; assay type: functional; settings: Macaca fascicularis
[25] = target: T3, Cathepsin E (Homo sapiens, UniProt P14091); test: Inhibition of human cathepsin E
T3 sequence (P14091 whole entry): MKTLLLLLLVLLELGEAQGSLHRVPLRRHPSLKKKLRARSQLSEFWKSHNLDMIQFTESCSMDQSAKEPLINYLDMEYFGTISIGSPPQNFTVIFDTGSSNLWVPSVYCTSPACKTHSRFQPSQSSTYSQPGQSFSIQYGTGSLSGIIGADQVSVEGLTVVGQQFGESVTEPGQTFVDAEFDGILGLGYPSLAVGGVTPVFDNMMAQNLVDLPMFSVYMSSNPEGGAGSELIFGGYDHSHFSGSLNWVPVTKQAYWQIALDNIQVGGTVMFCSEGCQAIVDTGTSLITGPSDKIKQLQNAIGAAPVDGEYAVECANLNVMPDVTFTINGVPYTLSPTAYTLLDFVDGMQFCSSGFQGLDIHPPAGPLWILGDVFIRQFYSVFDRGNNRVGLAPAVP

[26] = Volume of distribution at steady state in cynomolgus monkey at 3 mg/kg, iv; assay type: ADME, organism-based, Macaca fascicularis; set-up: dose 3 mg/kg, route intravenous; settings: in vivo, read-out: Vdss
[27] = Half life in cynomolgus monkey at 10 mg/kg, po; assay type: ADME, organism-based, Macaca fascicularis; set-up: dose 10 mg/kg, route oral; settings: in vivo
[28] = Clearance in cynomolgus monkey at 3 mg/kg, iv; assay type: ADME, organism-based, Macaca fascicularis; set-up: dose 3 mg/kg, route intravenous; settings: in vivo
[29] = Inhibition of Cytochrome P450; assay type: ADME
[30] = Oral bioavailability in cynomolgus monkey at 10 mg/kg; assay type: ADME, organism-based, Macaca fascicularis; settings: in vivo
[31] = test system: Salmonella typhimurium; test: Mutagenic activity in Salmonella typhimurium; assay type: toxicity, organism-based; settings: salmonella enterica subsp. enterica serovar typhimurium
[32] = AUC ( 0 to t) in cynomolgus monkey at 3 mg/kg, iv; assay type: ADME, organism-based, Macaca fascicularis; set-up: dose 3 mg/kg, route intravenous; settings: plasma
[33] = test system: Cynomolgus monkey; test: Cardiotoxicity in telemetered cynomolgus monkey assessed as change in QRS width at 1000 mg/kg, po administered as single dose measured up to 24 hrs; assay type: toxicity, organism-based, Macaca fascicularis; set-up: dose 1000 mg/kg, route oral; settings: in vivo

Chain of Cathepsin D (P07339 65-162 limits assumed): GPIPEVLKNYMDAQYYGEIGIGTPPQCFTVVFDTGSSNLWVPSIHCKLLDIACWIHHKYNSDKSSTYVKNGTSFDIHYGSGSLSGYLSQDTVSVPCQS
Chain of Cathepsin D (P07339 169-412 limits assumed): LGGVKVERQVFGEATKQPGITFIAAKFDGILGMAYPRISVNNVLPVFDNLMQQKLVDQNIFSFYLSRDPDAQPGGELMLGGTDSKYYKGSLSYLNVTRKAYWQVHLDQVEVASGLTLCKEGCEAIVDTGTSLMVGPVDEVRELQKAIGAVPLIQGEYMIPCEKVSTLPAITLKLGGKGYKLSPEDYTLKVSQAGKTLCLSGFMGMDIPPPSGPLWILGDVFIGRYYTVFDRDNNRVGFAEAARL
Chain of Voltage-gated inwardly rectifying potassium channel KCNH2 (Q12809 whole entry): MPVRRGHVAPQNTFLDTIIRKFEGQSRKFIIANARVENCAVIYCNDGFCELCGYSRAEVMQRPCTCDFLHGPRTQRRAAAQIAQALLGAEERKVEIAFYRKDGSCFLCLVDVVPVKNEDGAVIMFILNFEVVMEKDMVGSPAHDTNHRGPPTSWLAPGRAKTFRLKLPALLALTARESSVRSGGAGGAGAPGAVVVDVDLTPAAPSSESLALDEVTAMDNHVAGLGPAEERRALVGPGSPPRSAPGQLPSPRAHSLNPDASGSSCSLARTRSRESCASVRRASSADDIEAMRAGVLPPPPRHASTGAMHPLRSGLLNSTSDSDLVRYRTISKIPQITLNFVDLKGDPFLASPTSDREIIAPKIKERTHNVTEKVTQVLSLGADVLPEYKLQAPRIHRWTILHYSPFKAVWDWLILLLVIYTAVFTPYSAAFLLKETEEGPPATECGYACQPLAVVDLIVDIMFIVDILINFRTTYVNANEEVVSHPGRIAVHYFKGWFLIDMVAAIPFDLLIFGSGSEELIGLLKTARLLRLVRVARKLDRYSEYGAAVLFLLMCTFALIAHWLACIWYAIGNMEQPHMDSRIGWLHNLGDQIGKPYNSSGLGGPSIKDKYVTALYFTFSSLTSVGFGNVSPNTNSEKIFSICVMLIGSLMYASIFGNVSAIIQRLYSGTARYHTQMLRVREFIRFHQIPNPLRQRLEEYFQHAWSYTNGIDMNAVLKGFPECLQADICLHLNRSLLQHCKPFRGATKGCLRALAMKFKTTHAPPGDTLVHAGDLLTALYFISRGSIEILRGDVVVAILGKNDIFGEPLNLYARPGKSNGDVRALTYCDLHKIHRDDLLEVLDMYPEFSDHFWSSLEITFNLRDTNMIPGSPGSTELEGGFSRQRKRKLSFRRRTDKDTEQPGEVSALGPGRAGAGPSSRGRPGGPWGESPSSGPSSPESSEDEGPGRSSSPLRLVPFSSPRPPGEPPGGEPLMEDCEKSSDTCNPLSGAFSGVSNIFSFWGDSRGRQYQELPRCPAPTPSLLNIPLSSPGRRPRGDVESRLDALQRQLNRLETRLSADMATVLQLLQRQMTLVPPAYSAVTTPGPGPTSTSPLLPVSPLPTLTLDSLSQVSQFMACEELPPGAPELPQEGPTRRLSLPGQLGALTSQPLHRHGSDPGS
Chain of Sodium channel protein type 5 subunit alpha (Q14524 whole entry): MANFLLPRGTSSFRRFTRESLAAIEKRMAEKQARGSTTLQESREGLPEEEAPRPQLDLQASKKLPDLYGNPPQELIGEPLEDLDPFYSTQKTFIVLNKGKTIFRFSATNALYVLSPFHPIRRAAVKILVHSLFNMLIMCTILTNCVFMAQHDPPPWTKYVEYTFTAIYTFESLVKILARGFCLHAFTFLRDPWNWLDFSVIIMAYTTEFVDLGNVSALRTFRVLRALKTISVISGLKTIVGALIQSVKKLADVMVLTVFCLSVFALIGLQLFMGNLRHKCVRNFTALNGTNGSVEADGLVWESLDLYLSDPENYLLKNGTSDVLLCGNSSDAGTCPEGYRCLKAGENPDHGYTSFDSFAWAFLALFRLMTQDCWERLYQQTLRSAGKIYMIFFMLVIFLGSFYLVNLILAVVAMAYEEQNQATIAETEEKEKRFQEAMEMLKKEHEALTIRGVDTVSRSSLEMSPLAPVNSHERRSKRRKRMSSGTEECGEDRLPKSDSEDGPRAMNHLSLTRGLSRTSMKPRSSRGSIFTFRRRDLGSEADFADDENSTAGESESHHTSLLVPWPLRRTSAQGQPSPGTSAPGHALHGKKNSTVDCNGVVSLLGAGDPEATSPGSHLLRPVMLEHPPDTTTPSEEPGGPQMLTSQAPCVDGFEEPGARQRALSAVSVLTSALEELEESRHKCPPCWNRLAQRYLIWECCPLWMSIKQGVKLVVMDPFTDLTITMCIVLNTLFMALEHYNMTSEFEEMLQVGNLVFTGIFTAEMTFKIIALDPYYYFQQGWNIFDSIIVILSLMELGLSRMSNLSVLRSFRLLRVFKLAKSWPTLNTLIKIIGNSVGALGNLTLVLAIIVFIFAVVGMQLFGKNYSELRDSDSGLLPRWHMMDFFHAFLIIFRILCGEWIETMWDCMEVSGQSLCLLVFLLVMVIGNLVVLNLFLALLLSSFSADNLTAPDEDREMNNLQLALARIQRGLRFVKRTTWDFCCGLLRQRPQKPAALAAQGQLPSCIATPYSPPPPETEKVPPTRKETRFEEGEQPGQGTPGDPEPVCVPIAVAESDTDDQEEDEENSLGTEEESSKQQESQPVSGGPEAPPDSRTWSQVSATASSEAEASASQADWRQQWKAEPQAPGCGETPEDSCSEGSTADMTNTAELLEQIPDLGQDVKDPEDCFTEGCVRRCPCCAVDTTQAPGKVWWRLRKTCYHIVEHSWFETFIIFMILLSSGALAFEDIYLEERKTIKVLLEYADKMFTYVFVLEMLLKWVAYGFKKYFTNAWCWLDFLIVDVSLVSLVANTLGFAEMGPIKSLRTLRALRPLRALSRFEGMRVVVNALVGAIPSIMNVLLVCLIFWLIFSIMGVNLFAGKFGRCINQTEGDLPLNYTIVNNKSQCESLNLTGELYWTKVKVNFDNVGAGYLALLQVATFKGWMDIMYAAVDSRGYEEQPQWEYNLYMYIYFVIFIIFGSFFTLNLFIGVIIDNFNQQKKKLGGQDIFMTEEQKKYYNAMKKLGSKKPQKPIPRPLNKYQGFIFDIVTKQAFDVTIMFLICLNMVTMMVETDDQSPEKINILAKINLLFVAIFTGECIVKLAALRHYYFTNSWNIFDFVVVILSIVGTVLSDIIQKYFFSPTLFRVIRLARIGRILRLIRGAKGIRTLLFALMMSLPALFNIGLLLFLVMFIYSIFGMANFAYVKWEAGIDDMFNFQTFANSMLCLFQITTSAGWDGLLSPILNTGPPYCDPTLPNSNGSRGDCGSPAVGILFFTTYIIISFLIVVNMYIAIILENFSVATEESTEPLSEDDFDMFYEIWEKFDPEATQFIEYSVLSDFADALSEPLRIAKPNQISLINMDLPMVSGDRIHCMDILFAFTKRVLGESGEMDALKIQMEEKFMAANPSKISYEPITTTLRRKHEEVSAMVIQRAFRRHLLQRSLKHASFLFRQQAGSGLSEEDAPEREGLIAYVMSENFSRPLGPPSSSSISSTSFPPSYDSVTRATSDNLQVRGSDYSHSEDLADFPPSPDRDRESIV

In the case of `CC[C@H](C[C@H](O)[C@@H](N)CN1CC(=O)N(c2ccccc2Cl)CC1(C)C)C(=O)NC1C2CC3CC1CC(O)(C3)C2.O.O=C(O)/C=C/C(=O)O` (stereo partly drawn), the bioavailability [1] is reported as 4.1%, the Cmax [2] is reported as 399 ng/mL and the “inhibition (INH)” value [3] is reported as “Not Active”. For the same compound, the IC50 [4] was greater than 10000 nM, the inhibition in vivo at 3 mg/kg [5] was 65% and the Activity [6] was “Dose-dependent effect”. The AUC(0-t) [7] was 2880 ng·h/mL, the Ratio [8] was 3 and the IC50 [9] was greater than 10000 nM. The “inhibition (INH)” value [10] was “Not Active”, the IC50 [11] was greater than 10000 nM and the AUC(0-t) [12] was 685 ng·h/mL. For the same compound, the half-life [13] was 7.8 h, the Activity [14] was “Non-toxic” and the Cmax [15] was 102 ng/mL. For the same compound, the IC50 [16] was 1.9 nM, the Tmax [17] was 2.3 h and the inhibition [18] was “Dose-dependent effect”. It also gave a Tmax [19] of 3 h, a half-life [20] of 5.1 h and an IC50 [21] of 0.9 nM. For the same compound, the IC50 [22] was 6.3 nM, the Activity [23] was “Non-toxic” and the inhibition in vivo at 10 mg/kg [24] was 65%. For the same compound, the IC50 [25] was greater than 10000 nM, the Vd [26] was 1.12 L/kg and the half-life [27] was 5.4 h. The clearance [28] was 3.59 mL/min/kg, the IC50 [29] was greater than 10000 nM and the bioavailability [30] was 5.3%. The Activity [31] was “Non-toxic”, the AUC(0-t) [32] was 15500 ng·h/mL and the Activity [33] was “Non-toxic”.
